The values below are quoted from earlier work in patent US20130281387A1, “Chemosensory Receptor Ligand-Based Therapies” (ELCELYX THERAPEUTICS, INC., priority 2010, published 2013).

One series concerns gut hormones. To be noted: humans, after administration.
For `C=C1C[C@@]23CC[C@H]4[C@@](C)(CCC[C@@]4(C)C(=O)O[C@@H]4O[C@H](CO)[C@@H](O)[C@H](O)[C@H]4O)[C@@H]2CC[C@]1(O[C@@H]1O[C@H](CO)[C@@H](O)[C@H](O[C@@H]2O[C@H](CO)[C@@H](O)[C@H](O)[C@H]2O)[C@H]1O[C@@H]1O[C@H](CO)[C@@H](O)[C@H](O)[C@H]1O)C3` [Rebaudioside A], the “gut hormones in the circulation” value was “no alterations”.

A further series has as its system bitter receptor. The note with it: bitter phytonutrients in common plant foods.
`CC1(C)O[C@H]2CC(=O)OC[C@]23[C@H]2CC[C@@](C)([C@@H](O[C@@H]4O[C@H](CO)[C@@H](O)[C@H](O)[C@H]4O)c4ccoc4)[C@@]4(O[C@@H]4C(=O)O)[C@]2(C)C(=O)C[C@@H]13` [Limonin glucoside]: the Taste quality result was “Tasteless”.

For the molecule `O=c1c(-c2ccc(O)cc2)coc2cc(O)ccc12` [daidzein], the Taste quality entry was “Bitter or astringent”.

Take `S=C=NCc1ccccc1` [Benzyl isothiocyanate]: the Taste quality entry is recorded as “Acrid mustard oils;”.

On to `O=S(=O)(O)ON=C(Cc1c[nH]c2ccccc12)S[C@@H]1O[C@H](CO)[C@@H](O)[C@H](O)[C@H]1O` [Glucobrassicin], for which the Taste quality entry is recorded as “Bitter”.

As for `CC(=O)O[C@H]1CC(=O)OC(C)(C)[C@@H]2CC(=O)[C@]3(C)[C@H](CC[C@@]4(C)[C@H](c5ccoc5)OC(=O)[C@H]5O[C@]543)[C@@]12C` [Nomilin], the Taste quality entry is given as “Bitter”.

Consider `C=CCN=C=S` [Allyl-isothiocyanate], for which the Taste quality result is on record as “Acrid mustard oils;”.

For `C=CCC(=NOS(=O)(=O)O)S[C@@H]1O[C@H](CO)[C@@H](O)[C@H](O)[C@H]1O` (stereo in doubt) [Sinigrin], the Taste quality result is “Bitter”.

On to `O=C(O[C@@H]1Cc2c(O)cc(O)cc2O[C@@H]1c1ccc(O)c(O)c1)c1cc(O)c(O)c(O)c1` [Epicatechin gallate], for which the Taste quality result is “Bitter and astringent”.

As for `O=c1c(-c2ccc(O)cc2)coc2cc(O)cc(O)c12` [Genistein], the Taste quality result is given as “Bitter or astringent”.

Turning to `O=c1c(-c2ccc(O)cc2)coc2cc(O[C@@H]3O[C@H](CO)[C@@H](O)[C@H](O)[C@H]3O)cc(O)c12` [Genistin], the Taste quality entry is reported as “Astringent”.

Take `COc1ccc(-c2cc(=O)c3c(OC)c(OC)c(OC)cc3o2)cc1OC` [Sinensetin]: the Taste quality result is listed as “Bitter”.

As to `CC1(C)O[C@H]2CC(=O)OC[C@]23[C@H]2CC[C@@]4(C)[C@H](c5ccoc5)OC(=O)[C@H]5O[C@]54[C@]2(C)C(=O)C[C@@H]13` [Limonin], the Taste quality entry is “Bitter”.

As to `Oc1cc(O)c2c(c1)O[C@H](c1cc(O)c(O)c(O)c1)[C@H](O)C2` [Epigallocatechin], the Taste quality entry is given as “Bitter with sweet”.

`O=c1c(-c2ccc(O)cc2)coc2cc(O[C@@H]3O[C@H](CO)[C@@H](O)[C@H](O)[C@H]3O)ccc12` [Daidzin]: the Taste quality result is reported as “Astringent”.

With `C=CC1CNC(=S)O1` (stereo not shown) [Goitrin, Goitrin 5-vinyl-2-oxazolidine thione], the Taste quality entry is recorded as “Bitter”.

In the case of `COc1ccc(-c2cc(=O)c3c(OC)c(OC)c(OC)c(OC)c3o2)cc1OC` [Nobiletin], the Taste quality result is on record as “Bitter”.

In the case of `C[S+]([O-])CCCN=C=S` (stereo not shown) [3-Methyl-sulfinylpropyl isothiocyanate], the Taste quality entry is reported as “Acrid mustard oils”.

For the molecule `C[S+]([O-])CCCCN=C=S` (stereo not shown) [4-Methylsulfinyl butyl isothiocyanate], the Taste quality result is on record as “Acrid mustard oils”.

On to `O=C(O[C@@H]1Cc2c(O)cc(O)cc2O[C@@H]1c1cc(O)c(O)c(O)c1)c1cc(O)c(O)c(O)c1` [Epigallocatechin gallate], for which the Taste quality entry is recorded as “Bitter with sweet”.

On to `C[C@@H]1O[C@@H](O[C@H]2[C@H](Oc3cc(O)c4c(c3)O[C@H](c3ccc(O)cc3)CC4=O)O[C@H](CO)[C@@H](O)[C@@H]2O)[C@H](O)[C@H](O)[C@H]1O` [Naringin], for which the Taste quality result is listed as “Bitter”.

For `C=C[C@H](O)CC(=NOS(=O)(=O)O)S[C@@H]1O[C@H](CO)[C@@H](O)[C@H](O)[C@H]1O` [Progoitrin], the Taste quality entry is listed as “Bitter”.

`O=c1c(O)c(-c2ccc(O)c(O)c2)oc2cc(O)cc(O)c12` [Quercetin]: the Taste quality result is “Bitter”.

Regarding `COc1ccc(-c2cc(=O)c3c(OC)c(OC)c(OC)c(OC)c3o2)cc1` [Tangeretin], the Taste quality result is “Bitter”.

The subject of a further series is GLP-1. To be noted: humans, after administration.
Consider `OCCN1C[C@H](O)[C@@H](O)[C@H](O)[C@H]1CO` [miglitol], for which the “post-prandial GLP-1 levels” value was “increase”.
